Laboratory results from patent US9427474B2, “Conjugates of a polymer, a bisphosphonate and an anti-angiogenesis agent and uses thereof in the treatment and monitoring of bone related diseases” (Ramot at Tel-Aviv University Ltd., priority 2008, dated 2016).
HPMA copolymer = not defined here

Legend:
[1] = tested on: human prostate cell line PC3; assay: PC3 cell proliferation assay (XTT); format: cell-based
Procedure: Human Umbilical vain endothelial cells (HUVEC) were plated onto 24-well plate (1×10^4 cells/well) in growth factors reduced media, (EBM-2, Cambrex, USA) supplemented with 5% Fetal Bovine Serum (FBS). Following 24 hours of incubation (37° C.; 5% CO2) medium was replaced with EGM-2 (Cambrex, USA). PC3 cells were plated onto 96 well plate (2×10^3 cells/well) in DMEM supplemented with 5% FBS and incubated for 24 hours (37° C.; 5% CO2). Following 24 hours of incubation medium was replaced with DMEM containing 10% FBS. Cells were challenged with a combination of paclitaxel and ALN, a combination of Paclitaxel-FK and ALN, with each drug alone, and with […] (SEQ ID NO: 12), at serial concentrations for 72 hours. Control cells were grown with or without growth factors. After incubation HUVEC and PC3 were counted by Coulter Counter or by XTT respectively.

HUVEC = HUVEC cell proliferation assay; format: cell-based, human; details: for IC50: 48 hours incubation, Paclitaxel-equivalent, read-out: IC50, proliferation of HUVECs
Procedure: Human Umbilical vain endothelial cells (HUVEC) were plated onto 24-well plate (1×10^4 cells/well) in growth factors reduced media, (EBM-2, Cambrex, USA) supplemented with 5% Fetal Bovine Serum (FBS). Following 24 hours of incubation (37° C.; 5% CO2) medium was replaced with EGM-2 (Cambrex, USA). PC3 cells were plated onto 96 well plate (2×10^3 cells/well) in DMEM supplemented with 5% FBS and incubated for 24 hours (37° C.; 5% CO2). Following 24 hours of incubation medium was replaced with DMEM containing 10% FBS. […] Control cells were grown with or without growth factors. After incubation HUVEC and PC3 were counted by Coulter Counter or by XTT respectively.

[2] = tested on: DA3 murine mammary cancer cells; assay: Antitumor activity in vivo, mCherry-labeled DA3 tumors in the tibia; design: species or system Balb/c female mice; details: 9 days of treatment
Procedure: 9 Balb/c female mice (n=3 per group) were injected intra tibia with 5×10^5 mCherry-labeled DA3 murine mammary cancer cells. […] (SEQ ID NO: 12) or with vehicle (1:1:8 cremophor EL:ethanol:saline). Therapy was initiated 10 days after tumor cells injection. Tumor progression was monitored by CRI™ Maestro non-invasive intravital imaging system. At termination, tibias were weighed and analyzed. Data is expressed as mean±standard error of the mean (s.e.m.).
Balb/c female mice bearing mCherry-labeled DA3 tumors in the tibia were treated with free and conjugated ALN and PTX (1:1.6, 1.25 mg/kg ALN and 2 mg/kg PTX, every day). Tumor growth rates were measured and monitored by mCherry fluorescence signal using CRI™ Maestro non-invasive intravital imaging system.

Question: For `NCCCC(O)(P(=O)(O)O)P(=O)(O)O` [ALN, (4-amino-1-hydroxybutylidene)bisphosphonic acid], which “effect on the proliferation of PC3 cells” value ([1]; concentrations tested 0.01 nM-10 μM, alone or combined with PTX or PTX-FK) is on record?
Answer: no effect

Question: And the “concentration at which proliferation of HUVEC was inhibited (only the highest dose tested)” value (HUVEC; ALN alone)?
Answer: 6.25 µM

Question: What about the “additional effect on proliferation of HUVEC when combined with Paclitaxel or Paclitaxel-FK” value (HUVEC; tested concentrations 10 μM-0.001 nM) of the same compound?
Answer: no additional effect

Question: With `CC(=O)O[C@H]1C(=O)[C@@]2(C)[C@H]([C@H](OC(=O)c3ccccc3)[C@]3(O)C[C@H](OC(=O)[C@H](O)[C@@H](NC(=O)c4ccccc4)c4ccccc4)C(C)=C1C3(C)C)[C@]1(OC(C)=O)CO[C@@H]1C[C@@H]2O` [PTX, paclitaxel] as the compound, how does the “antitumor effect (in words)” value [2] read?
Answer: no therapeutic effect

Question: What about the “antitumor effect (in words)” value ([2]; listed as Free PTX) of the same compound?
Answer: no antitumor effect

Question: What about the “antitumor effect (in words)” value ([2]; listed as free PTX) of the same compound?
Answer: unaffected

Question: And the IC50 ([1]; Homo sapiens, PC-3, 72 hours, PTX alone, read-out: IC50, proliferation of PC3 cells)?
Answer: 1 µM

Question: How did the IC50 (HUVEC) turn out when “HPMA copolymer-GGFK-PTX conjugate: cathepsin B-enzymatically cleavable HPMA copolymer conjugate of paclitaxel ({HPMA copolymer}-GGFK-paclitaxel; reading uncertain; also: conjugated to HPMA copolymer, conjugated to paclitaxel (PTX))” was run?
Answer: ~0.1 µM

Question: Which “concentration inhibiting HUVEC proliferation relative to cathepsin B cleavable HPMA-GGFK-PTX conjugate” value (HUVEC; 48 hours) does the source give for “HPMA copolymer-GGGG-PTX conjugate ({HPMA copolymer}-GGGG-paclitaxel; reading uncertain; also: conjugated to HPMA copolymer, conjugated to paclitaxel (PTX))” here?
Answer: 2 logs

Question: What about the IC50 (HUVEC) of the same compound?
Answer: ~10 µM
